Measurements reported in patent US20090111997A1, “Method of Generating Amorphous Solid for Water-Insoluble Pharmaceuticals” (priority 2005, published 2009).

Description: The term “water insoluble pharmaceutical” means a pharmaceutical active ingredient that is insoluble or nearly insoluble in water with a dose number greater than 1. The dose number is defined as follows:
Dose number=theoretical dose in mg/water solubility×250 ml.
For example, if the theoretical dose of the drug is 20 mg per dose. […] Another example of a water insoluble pharmaceutical includes the compound of Formula I

Structure (SMILES): CC[C@H](C)C(=O)O[C@H]1C[C@@H](C)C=C2C=C[C@H](C)[C@H](CC[C@@H]3C[C@@H](O)CC(=O)O3)[C@H]21 [lovastatin]
- dose number (theoretical dose in mg/water solubility×250 ml): > 8
